# Experimental data as given in patent US20230266307A1, “BIOINFORMATICS” (University of Helsinki, priority 2020, published 2023).
# No end group written: not given here.
# Tests used:
# ccRCC PDO = assay: killing assay with peptide-pulsed CD8+ T cells on ccRCC patient-derived organoids; format: cell-based, human
# Source text: We focused our analysis on ccRCC samples. We used transcriptomics levels to select putative tumour antigens using PBMC and healthy kidney tissue as reference sets. Next, PBMCs from healthy volunteers were pulsed with the selected peptides, and CD8+ T cells isolated from those cells were used in the assay.
# Finally, we sought to investigate the recall T cells response in the ccRCC patient. To this end, unfractionated PBMCs derived from the patient were in vitro stimulated with the peptide EVAQPGPSNR whereas unstimulated PBMCs were adopted as control. The derived CD8+T cells were then added to the ccRCC PDO showing about a 7% increase in killing activity compared to the control group.
# JY cells = assay: in vitro killing assay, real time cytolysis of JY cells by peptide-pulsed CD8+ T cells; format: cell-based, human; conditions: for specific cytolysis: CD8+ T cells from HLA-matched PBMCs pulsed with the peptide, coculture with JY cells
# Experimental: Next, in order to determine the role of the peptides identified, a gene ontology (GO) term enrichment analysis was performed on our list of 9mer binder source proteins. We observed an enrichment in nuclear and intracellular proteins, mainly those interacting with DNA, RNA or involved in catabolic activity. […] To account for nonspecific cytotoxicity due to the effector cells per se, unstimulated PBMCs were used as a control. Real time cytolysis was then monitored.
# B16F10 cells = assay: intratumoral PeptiCRAd treatment of established B16F10 tumors; format: in vivo, C57BL/6J mice
# Experimental: (§1) A: Scheme of the animal experiment: 4 groups of C57BL mice were formed for each tumor cell line to be tested. Mice were subcutaneously injected either with B16-OVA or B16F10 cells at day 0. Once the tumor was palpable, mice were treated with saline solution (Mock group), uncoated adenovirus (Uncoated Virus group), adenovirus coated with pool of viral peptides homologous to TRP2 (Viral PeptiCRAd, VPC) or adenovirus coated with TRP2 peptide (TRP2 PeptiCRAd, TPC).
# (§2) All PeptiCRAd complexes described in this work were prepared by mixing Adenoviruses and polyK-tailed peptides according to the following protocol: 1×10^9 vp(viral particles) were mixed with 20 ug poly-K tailed peptides (resuspended in water); after vortexing, the mixture was incubated at room temperature for 15 min; PBS was added, after the incubation, up to the injection volume (50 uL/mouse), successively, the solution was vortexed again and used for assays or animal injections. For the TRP2-PeptiCRAd, 1×10^9 vp were mixed with 20ug of 6K-TRP2180-188 peptide, while the Viral-PeptiCRAd was prepared using 1×10^9 vp mixed with 5 ug of each viral 6K-peptide homologous for […]. […]
# (§3) Tumor growth was followed with a digital caliper measuring two dimensions of the tumor. Successively, the volume was mathematically calculated according to the following formula: […]
# B16-OVA cells = assay: intratumoral PeptiCRAd treatment of established B16-OVA tumors; format: in vivo, C57BL/6J mice; conditions: B16OVA
# Experimental: as §1, §2, §3
# [1] = target: HLA-I complexes of the human B-cell lymphoblastoid cell line JY (human); assay: cell-based or functional assay
molecule,measurement,setting,value
"EVAQPGPSNR (HSPG2 gene) [peptide from ccRCC organoids, gene name HSPG2]",specific cytolysis,"ccRCC PDO; CD8+ T cells from PBMCs of healthy volunteers pulsed with the peptide, ccRCC samples",about 10%
same,increase in killing activity compared to the control group,"ccRCC PDO; CD8+ T cells from the ccRCC patient's PBMCs stimulated with the peptide, added to ccRCC PDO, control unstimulated PBMCs",~7%
"ILDKKVEKV [HLA-I peptide from JY cells, gene name HSP90AB3P]",specific cytolysis,JY cells,15%
same,"specific cytolysis, comparison among the tested peptides","JY cells; JY cells, CD8+ T cell-dependent killing",higher percentage of specific cytolysis
"KVLEYVIKV [HLA-I peptide from JY cells, gene name MAGEA1]",specific cytolysis,JY cells,about 10%
"QLVDIIEKV [HLA-I peptide from JY cells, gene name PSME3]",specific cytolysis,JY cells,about 10%
"TRP2-PeptiCRAd: adenovirus coated with 6K-TRP2180-188 peptide (KKKKKKSVYDFFVWL; also: coated on adenovirus; UniProt P29812 180-188, looked up, fragment)",tumor progression,"B16F10 cells; B16F10, intratumoral, compared to saline buffer or uncoated virus",significantly reduced the tumor progression
same,number of responders,"B16F10 cells; B16F10, tumor volume below the median at endpoint",significantly higher number of responders
same,tumor progression,"B16-OVA cells; intratumoral, compared to saline buffer or uncoated virus",significantly reduced the tumor progression
same,number of responders,B16-OVA cells; tumor volume below the median at endpoint,significantly higher number of responders
KVLEYVIKV [… (gene name MAGEA1)],specific cytolysis of JY cells by CD8+ T cells pulsed with the peptide,[1],10%
ILDKKVEKV [… (gene name HSP90AB3P)],specific cytolysis of JY cells by CD8+ T cells pulsed with the peptide,[1],15%
QLVDIIEKV (not fully specified) [… (gene name PSME3)],specific cytolysis of JY cells by CD8+ T cells pulsed with the peptide,[1],10%
